In US20030097221A1, “Detection and characterization of psychoactives using parallel multi-site assays in brain tissue” (priority 2001, published 2003):
Values joined by “and” are separate entries in the source; they are usually repeats but may differ in a detail not shown here. Identical values can stand only once.

Legend:
Assay type in all cases: cell-based, rat
[1] = system: glutamate receptor-mediated evoked excitatory synaptic transmission, hippocampal slice mossy fibers; assay: Paired-pulse evoked fEPSP, mossy fibers (assay MF50), MED64; conditions: 250 μM; 50 ms inter-pulse delay
Method: A 17-24 day old Sprague Dawley rat was decapitated after anesthesia with halothane (2-bromo-2-chloro-1,1,1-trifluoroethane; Sigma; B4388), and the whole brain was removed. The brain was immediately soaked for ˜2 min in ice-cold, oxygenated preparation buffer of the following composition (in mM): 124 NaCl, 26 NaHCO3, 10 glucose, 3 KCl, 1.25 NaH2PO4, 2 CaCl2, and 2 MgSO4. Appropriate portions of the brain were trimmed and placed on the ice-cold stage of a vibrating tissue slicer (Leica, Nussloch, Germany; VT-1000S). The stage was immediately filled with both oxygenated and frozen preparation buffers. The thickness of each tissue slice was 350 μm. […]
(§1) Evoked field potentials at all 64 sites (minus stimulation sites) were recorded simultaneously with the multichannel recording system (Panasonic: MED64 system) at a 20 kHz sampling rate. […]
(§2) All assays employ paired-pulse stimulation at various rat hippocampal sites to elicit evoked responses. The resulting field EPSP recordings were analyzed using Matlab software (The MathWorks, Inc.) by computing several response measures such as amplitude, halfwidth, and negative area, which apply to both the first and second evoked reponses. Amplitude was defined as the maximum depolarization magnitude relative to the average baseline reading prior to the first stimulation pulse. […]

[2] = system: glutamate receptor-mediated evoked excitatory synaptic transmission, hippocampal slice CA1; assay: Paired-pulse evoked fEPSP in CA1, Schaffer collateral stimulation (assays SC50, SC200), MED64 multi-electrode array; parameters: key to SC 50 ms Amplitude fEPSP 1st, Mean / SC 50 ms Amplitude fEPSP 2nd, Mean / SC 200 ms Widths fEPSP 1st, Mean / SC 200 ms Widths fEPSP 2nd, Mean: fractional change vs. last 5 min of pre-wash-in control phase
Method: (§3) A 17-24 day old Sprague Dawley rat was decapitated after anesthesia with halothane (2-bromo-2-chloro-1,1,1-trifluoroethane; Sigma; B4388), and the whole brain was removed. The brain was immediately soaked for ˜2 min in ice-cold, oxygenated preparation buffer of the following composition (in mM): 124 NaCl, 26 NaHCO3, 10 glucose, 3 KCl, 1.25 NaH2PO4, 2 CaCl2, and 2 MgSO4. Appropriate portions of the brain were trimmed and placed on the ice-cold stage of a vibrating tissue slicer (Leica, Nussloch, Germany; VT-1000S). The stage was immediately filled with both oxygenated and frozen preparation buffers. The thickness of each tissue slice was 350 μm. Each slice was gently taken off the blade, and immediately soaked in the oxygenated artificial cerebrospinal fluid (ACSF) for at least 1 hr at room temperature. Then a slice was placed on the center of the MED probe. The slice was positioned to cover the 8×8 array. After positioning the slice, the MED probe was immediately placed in a box filled with 95% O2 and 5% CO2.
During recording, the slices were continuously perfused with a solution of the following composition: ACSF (in mM): 124 NaCl, 26 NaHCO3, 10 glucose, 3 KCl, 1.25 kH2PO4, 2 CaCl2, 1 MgSO4. All compounds were bath applied at known concentrations and were prepared daily from frozen aliquots. Compounds were purchased from Sigma. Ampakines (CX516, CX546, CX554) were made fresh everyday, and used at concentrations: CX516, 250 μM; CX546, 250 μM; and CX554, 30 μM.
Baseline, application, and recovery time was usually at 10, 20, and 30 min respectively.
During electrophysiological recording, the slices on the MED probe were placed in a small CO2 incubator (Asahi Lifescience; model 4020) at 32° C. The slices were placed on an interface, and a moisturized with a 95% O2 and 5% CO2 gas mixture.
Evoked field potentials at all 64 sites (minus stimulation sites) were recorded simultaneously with the multichannel recording system (Panasonic: MED64 system) at a 20 kHz sampling rate. In the case of the evoked response, one of the planar microelectrodes out of the 64 available was used for the stimulating cathode. Bipolar constant-current pulses (10-50 μA; 0.1 ms) were produced by the data acquisition software via the isolator. The stimulating microelectrode was selected by the 64-switch box.
All assays employ paired-pulse stimulation at various rat hippocampal sites to elicit evoked responses. The resulting field EPSP recordings were analyzed using Matlab software (The MathWorks, Inc.) by computing several response measures such as amplitude, halfwidth, and negative area, which apply to both the first and second evoked reponses. Amplitude was defined as the maximum depolarization magnitude relative to the average baseline reading prior to the first stimulation pulse. Halfwidth was defined as the duration of the depolarization phase of the evoked response at half its maximum amplitude value. Negative area was obtained by taking the magnitude of the integral of the evoked response curve over all segments with the same polarity as the depolarization phase. This integral spans a time window of 25 msec beginning one msec after the stimulation pulse.
Amplitudes and halfwidths for both first and second elicited responses were computed for assays SC50, SC200, and CA3-1—50. For DG50 only first and second amplitudes were computed. Negative areas for first and second responses were computed for SC50, SC200, CA3-1—50, and MF50.
All response paramters were utilized to quantify candidate sample composition effects on the hippocampus. For a given response parameter, the candidate sample composition effect was defined as the percent change of the average measure during the last five minutes of the wash-in phase with respect to the average measure of the last five minutes of the preceding, pre-wash-in control phase. […]

[3] = system: hippocampal slice regions (CA1, DG, MF); assay: Comparison between regions of the slice, area under the curve for all 4 assays (FIG. 9); conditions: prediction drawn from the results of FIG. 9
Method: All assays employ paired-pulse stimulation at various rat hippocampal sites to elicit evoked responses. The resulting field EPSP recordings were analyzed using Matlab software (The MathWorks, Inc.) by computing several response measures such as amplitude, halfwidth, and negative area, which apply to both the first and second evoked reponses. Amplitude was defined as the maximum depolarization magnitude relative to the average baseline reading prior to the first stimulation pulse. Halfwidth was defined as the duration of the depolarization phase of the evoked response at half its maximum amplitude value. Negative area was obtained by taking the magnitude of the integral of the evoked response curve over all segments with the same polarity as the depolarization phase. This integral spans a time window of 25 msec beginning one msec after the stimulation pulse. […]
(§4) All response paramters were utilized to quantify candidate sample composition effects on the hippocampus. […]
To compare the response of tissue slices to candidate sample compositions between different regions of the slice, the area under the curve for all 4 assays was calculated.
To compare the effect of compounds in candidate sample compositions between different regions of a tissue slice, the area under the curve for all 4 assays was calculated. […]

[4] = system: glutamate receptor-mediated evoked excitatory synaptic transmission, hippocampal slice dentate gyrus; assay: Paired-pulse evoked fEPSP in dentate gyrus (assay DG50), MED64; conditions: 250 μM; 50 ms inter-pulse delay
Method: as §3, with “CO2. […]” for “CO2.”
as §1, §2
The polarity of the evoked responses for assay DG50 was reversed before analysis because of the inverted voltage values recorded by the DG50 electrode. Assays SC50, SC200, MF50, and CA3-1—50, however, were analyzed without such a reversal. […]
as §4

[5] = CX516 250 μM, individual slice files, normalized change over control
[6] = CX516 250 μM, n = 4, normalized change over control

mossy fibers' response (area) [1]: increase
amplitude of both responses in CA1 ([2]; 250 μM, 50 ms or 200 ms delay between stimulation pulses): increase in the amplitude
kind of modulation of the responses in CA1 (halfwidth vs amplitude) ([2]; CX516, CX546 250 μM, CX554 30 μM): amplitude only modulation
responses recorded in dentate gyrus (amplitude) [4]: increase
Compound: O=C(c1ccc2nccnc2c1)N1CCCCC1 [CX516, 1-(Quinoxalin-6-ylcarbonyl)piperidine]
effect on half-width of both responses ([2]; 250 μM, summary of Table 1): no effect
increase of the amplitude of first and second fEPSP ([2]; 250 μM, summary of Table 1): 15-17%
SC 50 ms Amplitude fEPSP 1st [2, 5]: 0.276 and 0.211 and 0.087 and 0.110
SC 50 ms Amplitude fEPSP 2nd [2, 5]: 0.246 and 0.192 and 0.044 and 0.085
SC 50 ms Widths fEPSP 1st [2, 5]: 0.020 and −0.023 and 0.063 and 0.007
SC 50 ms Widths fEPSP 2nd [2, 5]: −0.001 and 0.017 and 0.045 and 0.026
SC 200 ms Amplitude fEPSP 1st [2, 5]: 0.260 and 0.206 and 0.093 and 0.114
SC 200 ms Amplitude fEPSP 2nd [2, 5]: 0.258 and 0.194 and 0.067 and 0.085
SC 200 ms Widths fEPSP 1st [2, 5]: 0.036 and −0.024 and 0.051 and −0.002
SC 200 ms Widths fEPSP 2nd [2, 5]: 0.035 and 0.001 and 0.049 and 0.037
SC 50 ms Amplitude fEPSP 1st, Change over Control (%) ([2]; CX516 250 μM, n = 4): 17.108%
SC 50 ms Amplitude fEPSP 2nd, Change over Control (%) ([2]; CX516 250 μM, n = 4): 14.178%
SC 50 ms Widths fEPSP 1st, Change over Control (%) ([2]; CX516 250 μM, n = 4): 1.658%
SC 50 ms Widths fEPSP 2nd, Change over Control (%) ([2]; CX516 250 μM, n = 4): 2.168%
SC 200 ms Amplitude fEPSP 1st, Change over Control (%) ([2]; CX516 250 μM, n = 4): 16.825%
SC 200 ms Amplitude fEPSP 2nd, Change over Control (%) ([2]; CX516 250 μM, n = 4): 15.088%
SC 200 ms Widths fEPSP 1st, Change over Control (%) ([2]; CX516 250 μM, n = 4): 1.525%
SC 200 ms Widths fEPSP 2nd, Change over Control (%) ([2]; CX516 250 μM, n = 4): 3.055%
SC 50 ms Amplitude fEPSP 1st, Mean [2, 6]: 0.171
SC 50 ms Amplitude fEPSP 2nd, Mean [2, 6]: 0.142
SC 50 ms Widths fEPSP 1st, Mean [2, 6]: 0.017
SC 50 ms Widths fEPSP 2nd, Mean [2, 6]: 0.022
SC 200 ms Amplitude fEPSP 1st, Mean [2, 6]: 0.168
SC 200 ms Amplitude fEPSP 2nd, Mean [2, 6]: 0.151
SC 200 ms Widths fEPSP 1st, Mean [2, 6]: 0.015
SC 200 ms Widths fEPSP 2nd, Mean [2, 6]: 0.031
degree to which ampakines enhance activation of interneurons (rank order) [3]: CX554>CX546>CX516
